Source: ChEMBL document CHEMBL4007415, “Thieno[3,2-b]pyrrole-5-carboxamides as New Reversible Inhibitors of Histone Lysine Demethylase KDM1A/LSD1. Part 1: High-Throughput Screening and Preliminary Exploration” (J Med Chem, 2017)
The source made the active and inactive calls. The calls are words filed in the database; no cut-off is given here.

Tests used:
[1] = molecular target: T1, LSD1/CoREST complex (Homo sapiens, UniProt O60341); experiment: Inhibition of recombinant human KDM1A/CoREST complex expressed in Escherichia coli using biotinylated H3K4me1 peptide as substrate preincubated for 10 mins with enzyme followed by substrate addition measured after 1 hr by TR-FRET HTS assay
[2] = molecular target: T1, LSD1/CoREST complex
Description: Inhibition of recombinant human KDM1A/CoREST complex expressed in Escherichia coli using biotinylated H3K4me1 peptide as substrate preincubated for 20 mins measured after 1 hr by TR-FRET assay

[3] = molecular target: T1, LSD1/CoREST complex; remark: listed apart in the source
Description: Inhibition of recombinant human KDM1A/CoREST complex expressed in Escherichia coli using H3K4me1 peptide as substrate preincubated for 15 mins with enzyme followed by substrate addition measured after 12 mins by Amplex Ultra Red reagent based HRP enzyme coupled assay

[4] = molecular target: T2, Amine oxidase [flavin-containing] A (Homo sapiens, UniProt P21397)
T2 sequence (P21397 whole entry): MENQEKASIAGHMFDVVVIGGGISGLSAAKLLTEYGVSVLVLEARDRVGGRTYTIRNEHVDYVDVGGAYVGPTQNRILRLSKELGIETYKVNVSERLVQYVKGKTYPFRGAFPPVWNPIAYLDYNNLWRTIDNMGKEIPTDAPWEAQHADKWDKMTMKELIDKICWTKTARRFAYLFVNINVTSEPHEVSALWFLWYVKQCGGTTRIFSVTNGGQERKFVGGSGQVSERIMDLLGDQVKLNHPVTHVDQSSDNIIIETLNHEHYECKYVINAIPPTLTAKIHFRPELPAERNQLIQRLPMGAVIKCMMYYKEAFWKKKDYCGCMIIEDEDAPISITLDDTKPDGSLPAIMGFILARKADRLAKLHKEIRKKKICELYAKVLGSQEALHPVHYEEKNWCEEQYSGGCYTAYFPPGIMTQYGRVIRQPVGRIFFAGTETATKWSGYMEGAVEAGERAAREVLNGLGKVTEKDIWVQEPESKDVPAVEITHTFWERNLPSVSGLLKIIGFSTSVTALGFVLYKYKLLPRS
Description: Inhibition of recombinant human MAOA incubated for 15 mins measured after 30 mins by luminescence-Glo assay

[5] = molecular target: T3, Amine oxidase [flavin-containing] B (Homo sapiens, UniProt P27338)
T3 sequence (P27338 whole entry): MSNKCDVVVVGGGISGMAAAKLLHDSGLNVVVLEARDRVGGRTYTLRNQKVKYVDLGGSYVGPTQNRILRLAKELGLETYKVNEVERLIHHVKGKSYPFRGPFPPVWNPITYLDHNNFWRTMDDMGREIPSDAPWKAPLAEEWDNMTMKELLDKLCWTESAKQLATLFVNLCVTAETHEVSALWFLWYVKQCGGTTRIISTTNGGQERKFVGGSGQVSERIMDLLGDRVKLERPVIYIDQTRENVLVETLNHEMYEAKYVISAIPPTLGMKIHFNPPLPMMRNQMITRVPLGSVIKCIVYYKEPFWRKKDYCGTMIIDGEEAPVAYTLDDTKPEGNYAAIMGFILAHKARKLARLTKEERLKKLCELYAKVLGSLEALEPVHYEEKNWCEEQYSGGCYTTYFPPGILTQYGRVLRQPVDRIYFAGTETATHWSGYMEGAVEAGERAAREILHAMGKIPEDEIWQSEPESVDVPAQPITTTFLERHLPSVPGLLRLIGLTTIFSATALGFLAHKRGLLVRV
Description: Inhibition of recombinant human MAOB incubated for 15 mins measured after 30 mins by luminescence-Glo assay

[6] = molecular target: T1, LSD1/CoREST complex; experiment: Competitive inhibition of recombinant human KDM1A/CoREST complex expressed in Escherichia coli using H3K4me1 peptide as substrate preincubated for 15 mins followed by substrate addition measured for 12 mins by Lineweaver-Burk plot analysis
[7] = tested on: THP-1; experiment: Induction of apoptosis in human THP1 cells at 0.5 uM after 72 hrs by Annexin V-propidium iodide staining based flow cytometry; format: functional, cell-based
[8] = tested on: THP-1; experiment: Induction of cell death in human THP1 cells at 0.5 uM after 72 hrs by propidium iodide staining based flow cytometry; format: functional
[9] = molecular target: T4, Lysine-specific histone demethylase 2 (Homo sapiens, UniProt Q8NB78)
T4 sequence (Q8NB78 whole entry): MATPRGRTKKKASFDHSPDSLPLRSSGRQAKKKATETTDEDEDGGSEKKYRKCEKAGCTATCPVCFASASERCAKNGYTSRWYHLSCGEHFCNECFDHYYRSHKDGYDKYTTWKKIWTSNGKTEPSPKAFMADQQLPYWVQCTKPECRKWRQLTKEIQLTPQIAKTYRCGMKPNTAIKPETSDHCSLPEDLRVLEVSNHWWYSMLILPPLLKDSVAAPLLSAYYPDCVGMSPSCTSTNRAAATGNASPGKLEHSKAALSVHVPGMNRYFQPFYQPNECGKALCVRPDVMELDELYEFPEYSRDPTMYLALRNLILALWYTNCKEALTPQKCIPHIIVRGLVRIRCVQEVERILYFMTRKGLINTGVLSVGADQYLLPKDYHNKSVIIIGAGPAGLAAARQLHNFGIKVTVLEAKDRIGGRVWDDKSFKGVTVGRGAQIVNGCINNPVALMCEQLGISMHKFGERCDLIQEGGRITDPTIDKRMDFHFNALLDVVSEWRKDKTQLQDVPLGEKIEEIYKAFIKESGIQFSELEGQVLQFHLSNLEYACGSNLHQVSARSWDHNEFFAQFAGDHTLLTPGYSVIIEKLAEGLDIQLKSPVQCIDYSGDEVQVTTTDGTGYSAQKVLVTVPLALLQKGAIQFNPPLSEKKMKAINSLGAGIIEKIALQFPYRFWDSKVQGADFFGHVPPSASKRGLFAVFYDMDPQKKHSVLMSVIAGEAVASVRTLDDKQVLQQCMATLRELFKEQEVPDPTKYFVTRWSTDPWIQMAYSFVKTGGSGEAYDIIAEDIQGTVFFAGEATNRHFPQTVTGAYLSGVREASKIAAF
Description: Inhibition of KDM1B (unknown origin)

[10] = tested on: THP-1; experiment: Anticlonogenic activity against human THP1 cells assessed as inhibition of colony formation at 0.5 uM after 13 days relative to control; format: functional; conditions: THP-1, 312 h
[11] = molecular target: Lysine-specific histone demethylase 1A (Homo sapiens) (UniProt O60341); experiment: Inhibition of KDM1A in human THP1 cells assessed as increase in CD14 mRNA expression level at 1 uM after 24 hrs by qRT-PCR analysis relative to control; format: cell-based
[12] = tested on: THP-1; experiment: Induction of apoptosis in human THP1 cells at 1 uM after 72 hrs by Annexin V-propidium iodide staining based flow cytometry; format: functional, cell-based
[13] = molecular target: Lysine-specific histone demethylase 1A (Homo sapiens) (UniProt O60341); experiment: Inhibition of KDM1A in human THP1 cells assessed as increase in CD11b mRNA expression level at 1 uM after 24 hrs by qRT-PCR analysis relative to control; format: cell-based
[14] = tested on: THP-1; experiment: Induction of cell death in human THP1 cells at 1 uM after 72 hrs by propidium iodide staining based flow cytometry; format: functional
[15] = tested on: CC(=O)c1ccc(CN2CCC3(CCNCC3)C2)cc1; conditions: Homo sapiens
Description: Inhibition of recombinant human KDM1A/CoREST complex expressed in Escherichia coli assessed as Km for substrate using H3K4me1 peptide as substrate preincubated for 15 mins followed by substrate addition measured for 12 mins by Lineweaver-Burk plot analysis

Compound	IC50 [2]	other results
Cc1nc(-n2nc(-c3cccs3)cc2NC(=O)COc2ccccc2F)[nH]c(=O)c1C		IC50 [1]: 0.76 µM
Cn1c(C(=O)Nc2ccccc2)cc2sccc21	25.7 µM	
Cn1c(C(=O)Nc2cccc(CN3CCOCC3)c2)cc2sccc21	11.1 µM	
CC(=O)c1ccc(CN2CCC3(CCNCC3)C2)cc1	8.1 µM	IC50 [3]: 82.4 µM; IC50 [4]: > 100 µM; IC50 [5]: 42.5 µM; Ki [6]: 48.4 µM; IC50 [1]: 5 µM
Cc1oc(-c2ccc(Cl)cc2[N+](=O)[O-])cc1C(=O)Nc1ccccc1		IC50 [1]: 3.5 µM
Cn1c(C(=O)Nc2ccccc2)c(I)c2sccc21	> 100 µM	
Cn1cnc2[nH]c(C(=O)Nc3ccccc3)cc21	> 100 µM	
Cn1c(C(=O)Nc2cccc(COc3ccc(O)cc3)c2)cc2sccc21	25.2 µM	
NC1CCC(N[C@@H]2C[C@H]2c2ccccc2)CC1 (some centres not stated)		Activity [7]: inactive; IC50 [4]: 48.3 µM; Activity [8]: inactive; IC50 [9]: 43.4 µM; inhibition at 0.5 µM [10]: 70%
O=C(Nc1ccccc1)c1cc2sccc2n1S(=O)(=O)c1ccccc1	> 100 µM	
O=C(Nc1ccccc1)c1ccc2sccc2c1	> 100 µM	
Cc1csc2cc(C(=O)Nc3ccccc3)n(C)c12	> 100 µM	
Cn1c(C(=O)Nc2ccccc2)c(Cl)c2sccc21	> 100 µM	
Cn1c(C(=O)Nc2ccccc2)cc2occc21	89.5 µM	
O=C(Nc1ccccc1)c1cc2sccc2n1-c1ccccc1	> 100 µM	
CN1CCC(Oc2ccc(OCc3cccc(NC(=O)c4cc5sccc5n4C)c3)cc2)CC1	0.44 to 0.442 µM	IC50 [4]: > 100 µM; fold change (FC) [11]: 2.76; IC50 [5]: 7.6 µM; Activity [12]: inactive; fold change (FC) [13]: 4.76; IC50 [9]: > 100 µM; Activity [14]: inactive

Compound	IC50 [2]	other results
Cn1c(C(=O)Nc2ccccc2)cc2ncsc21	> 100 µM	
CN(C)c1cccc(NC(=O)c2cc3sccc3n2C)c1	29.6 µM	
CN(C)Cc1cc2c(cc(C(=O)Nc3ccccc3)n2C)s1	> 100 µM	
LSD1/CoREST complex (Homo sapiens) (from UniProt O60341+Q9UKL0)		Km [15]: 1.4 µM
CN(C)Cc1cccc(NC(=O)c2cc3sccc3n2C)c1	16.7 µM	
NCCn1c(C(=O)Nc2ccccc2)cc2sccc21	48.1 µM	
Cn1c(C(=O)Nc2cccc(COc3ccncc3)c2)cc2sccc21	9.4 µM	
Cn1c(C(=O)Nc2ccccc2)cc2ccsc21	38.8 µM	
COc1cccc(NC(=O)c2cc3sccc3n2C)c1	26.5 µM	
Cn1c(C(=O)Nc2ncccn2)cc2sccc21	> 100 µM	
CSCc1cccc(NC(=O)c2cc3sccc3n2C)c1	7.4 µM	
CN1CCN(c2cccc(NC(=O)c3cc4sccc4n3C)c2)CC1	21.5 µM	
Cn1c(C(=O)Nc2ccncn2)cc2sccc21	> 100 µM	
Cc1cc2c(cc(C(=O)Nc3ccccc3)n2C)s1	> 100 µM	
Cc1c(C(=O)Nc2ccccc2)n(C)c2ccsc12	> 100 µM	
